How the values were obtained:
[1] = tested on: L02 cells; test: CCK-8 assay, normal hepatic cells L02; assay type: cell-based; settings: Homo sapiens; for inhibition at 2 µM / inhibition at 4 µM / inhibition at 8 µM / inhibition at 16 µM / inhibition at 32 µM: L02, 48 h, L02 cells, read-out: Inhibition Rate %, 48 h; for IC50: normal hepatic cells L02, CCK-8, 48 h, mean ± SD, n = 3
Method: NCI-H1299, NCI-H1437 and L02 cells were cultured in a humidified incubator (Thermo Scientific™ Forma™ Direct Heat CO2 Incubator, Waltham, MA, USA) at 37 °C with 5% CO2 in RPMI-1640 supplemented with 10% fetal bovine serum (FBS) and 1% Penicillin Streptomycin. A549 cells were cultured in a humidified incubator at 37 °C with 5% CO2 in Ham’s F-12K supplemented with 10% FBS and 1% Penicillin Streptomycin.
(§1) Three types of lung cells and L02 cells were seeded into 96-well plate at a density of 5 × 10^3 cells per well in the logarithmic growth phase and cultured at 37 °C. The cells were then treated initially with different concentrations of compounds 4a–4n (0, 2, 4, 8, 16 and 32 μM) for an additional 48 h, with three replicate wells each. Next, cell viability was determined according to the instructions of the CCK-8 assay. Then, 10 μL CCK-8 solution was added to each well of the plate and incubated for 1–4 h in the incubator. The absorbance was measured at 450 nm using a microplate reader (Bio-Tek, Winooski, VT, USA). The percentage of viable cells was measured using the following formula where three independent experiments were performed: [(A450sample − A450blank)/(A450control − A450blank)] × 100%.

[2] = tested on: lung cancer cells; test: CCK-8 assay, lung cancer cells (line not specified); assay type: cell-based; settings: read-out: inhibition rate on lung cancer cells
Method: as §1

[3] = tested on: NCI-H1299 cells; test: CCK-8 assay, NCI-H1299 cells; assay type: cell-based, human; settings: Homo sapiens, NCI-H1299; CCK-8, 48 h, mean ± SD, n = 3
Method: (§2) Next, cell viability was determined according to the instructions of the CCK-8 assay. Then, 10 μL CCK-8 solution was added to each well of the plate and incubated for 1–4 h in the incubator. […] The percentage of viable cells was measured using the following formula where three independent experiments were performed: [(A450sample − A450blank)/(A450control − A450blank)] × 100%.

[4] = tested on: Bcl-2/caspase3/PARP signaling pathway; test: Western blot, apoptosis proteins in H1299 cells; assay type: cell-based, human; settings: H1299, 4, 8 and 16 μM, 48 h
Method: (§3) Firstly, H1299 cells were treated with the different concentrations of 4b and 4c at 4, 8 and 16 μM for 48 h. Then, cells were harvested using RIPA lysate (R0010, Solarbio, Beijing, China) and centrifuged at 12,000× g rpm for 15 min at 4 °C. Following that, the concentration of total protein was measured and taken from the supernatant. Protein was separated by 12% SDS-polyacrylamide gel electrophoresis and transferred to nitrocellulose filter membrane. After blocking in 5% milk for 2 h, the membranes were incubated with a specific primary antibody at 4 °C overnight. The next day, NC membranes were incubated for 1 h at room temperature with appropriate secondary antibodies and then protein bands were visualizing by chemiluminescence detection (ECL kit, Genview, Beijing, China).

[5] = tested on: NCI-H1437 cells; test: CCK-8 assay, NCI-H1437 cells; assay type: cell-based; settings: Homo sapiens, NCI-H1437; CCK-8, 48 h, mean ± SD, n = 3
Method: as §2

[6] = tested on: H1299 cells; test: Transwell migration assay; assay type: cell-based, human; settings: H1299, 2, 4 and 8 μM, 24 h, vs normal control
Method: Transwell assay was used to determine the migration ability of H1299 cells. Cells were starved in serum-free RPMI 1640 medium for 24 h, then detached and resuspended in serum-free RPMI 1640 medium. 5 × 10^5 cells/mL were inoculated into the upper chamber of a 24-well Transwell plate (Corning Inc., Corning, NY, USA), with a volume of 100 μL per well. Then, 100 μL serum-free medium containing 4b or 4c (2, 4 and 8 μM) was added to the upper chamber and the lower chamber was filled with 700 μL medium containing 20% FBS. After incubation for 24 h, H1299 cells on the upper membrane of the transwell were wiped off. The migrated cells were treated with 4% paraformaldehyde for 20 min, stained with 0.1% crystal violet for 20 min and washed three times with PBS. The number of H1299 cells that migrated to the underside of the membrane was counted under the inverted fluorescence microscope. Three randomly selected areas from each transwell were photographed and calculated using Image J.

[7] = tested on: MMP9; test: Western blot, MMP9 in H1299 cells; assay type: cell-based, human; settings: H1299, with increasing drug concentration
Method: as §3

[8] = tested on: H1299 cells; test: Colony formation assay; assay type: cell-based, human; settings: seven days
Method: H1299 cells were seeded in six-well plates at a density of 500 cells per well and treated with 4b or 4c (1, 2 and 4 μM) for seven days. Then, cells were per-fixed with 4% paraformaldehyde for 30 min, stained with 0.1% crystal violet for 15 min and then washed with pure water. After destain with water, the plates were allowed to dry at room temperature overnight. Image J was used to count the number of clone formations.

[9] = tested on: H1299 cells; test: Wound healing (cell scratch) assay; assay type: cell-based, human; settings: 24 h
Method: H1299 cells were seeded in a 6-well plate. When the cell confluency reached 95%, a wound line was scratched using a 200 μl pipette tip and then washed three times. Then, fresh medium containing 4b or 4c (2, 4 and 8 μM) was added and the plate was incubated at 37 °C with 5% CO2. All images were captured at 0 h and 24 h under an inverted microscope, and the quantification of scratches was analyzed using Image J (https://imagej.net/ij/, accessed on 4 January 2024).

[10] = tested on: A549 cells; test: CCK-8 assay, A549 cells; assay type: cell-based; settings: Homo sapiens, A549; CCK-8, 48 h, mean ± SD, n = 3
Method: as §2

[11] = tested on: H1299 cells; test: DAPI staining for cell apoptosis; assay type: cell-based, human; settings: H1299, 2, 4 and 8 μM, 48 h
Method: H1299 (1.5 × 10^4–2 × 10^4/well) cells were seeded in 24-well plates for 24 h and then treated with 4b or 4c at the concentrations of 2, 4 and 8 μM for 48 h. The cells were fixed for 30 min at room temperature in 4% paraformaldehyde and washed three times in PBS. Finally, every well was stained with DAPI (10 μg/mL) at room temperature for 30 min and washed at least three times in PBS. The fluorescence microscope was used to observe the morphological changes of cell nuclei.

[12] = tested on: H1299 cells; test: Annexin V-EGFP/PI flow cytometry for cell apoptosis; assay type: cell-based, human; settings: 48 h
Method: H1299 cells were seeded in a 6-well plate at a density of 1 × 10^5 cells/well and incubated for 24 h. The following day, the medium was replaced with fresh medium containing 4b or 4c (2, 4 and 8 μM) and cells were incubated for an additional 48 h. Cell apoptosis was detected using Annexin V-EGFP/PI apoptosis detection kit (Beyotime Biotechnology, Shanghai, China) by flow cytometry. Subsequently, 5 μL of […] Annexin V and 10 μL of PI was added to the cell suspension, gently vortexed and incubated at room temperature in the dark for 20 min. Then, single-cell suspension was prepared followed by flow cytometry (BD Accuri™ C6 Plus, BD Biosciences, Franklin Lake, NJ, USA).

Structure (SMILES)	inhibition at 2 µM [1]	inhibition at 4 µM [1]	inhibition at 8 µM [1]	inhibition at 16 µM [1]	inhibition at 32 µM [1]	IC50 [1]	inhibition at 4 µM [2]	IC50 [3]	expression level of Bcl-2 protein [4]	expression level of PARP protein [4]	expression level of caspase 3 protein [4]	expression level of caspase 9 protein [4]	expression level of cleaved PARP protein [4]	expression level of cleaved caspase 3 protein [4]	IC50 [5]	number of cells crossing the microporous membrane [6]	MMP9 protein expression [7]	formation of H1299 cell colonies ([8]; 1 μM)	formation of H1299 cell colonies ([8]; 4 μM)	migration closure rate ([9]; H1299, 2 μM)	further results
COc1cc2ncnc(Nc3cccc(-c4cn(Cc5ccccc5Br)nn4)c3)c2cc1OCCCN1CCOCC1 [Compound 4b, N-(3-(1-(2-Bromobenzyl)-1H-1,2,3-triazol-4-yl)phenyl)-7-methoxy-6-(3-morpholinopropoxy)quinazolin-4-amine]	9.09 ± 1%	< 20%	29.8 ± 1.27%	39.1 ± 2.18%	64.8 ± 1.84%	20.2 ± 1.26 µM	50%	4.42 ± 0.24 µM	concentration-dependent decrease	concentration-dependent decrease	concentration-dependent decrease	concentration-dependent decrease	increased	increased	1.56 ± 0.06 µM	significant reduction	decrease in MMP9 protein expression	significantly inhibit	almost completely inhibited	72.59 ± 2.12%	migration closure rate ([9]; H1299, 4 μM): 62.42 ± 5.50%; migration closure rate ([9]; H1299, 8 μM): 49.79 ± 2.22%; IC50 [10]: 3.94 ± 0.01 µM; melting point: 165 to 166 °C; nuclear morphology (DAPI staining) [11]: typical apoptotic features; total apoptotic cell proportion ([12]; H1299, 2 μM): 20.43 ± 1.72%; total apoptotic cell proportion ([12]; H1299, 4 μM): 43.2 ± 2.4%; total apoptotic cell proportion ([12]; H1299, 8 μM): 77.4 ± 3.97%
COc1cc2ncnc(Nc3cccc(-c4cn(Cc5cccc(F)c5)nn4)c3)c2cc1OCCCN1CCOCC1 [Compound 4c, N-(3-(1-(3-Fluorobenzyl)-1H-1,2,3-triazol-4-yl)phenyl)-7-methoxy-6-(3-morpholinopropoxy)quinazolin-4-amine]	7.18 ± 1.22%	< 20%	27.6 ± 2.79%	30.6 ± 1.93%	56.1 ± 5.77%	29.4 ± 5.53 µM	50%	4.6 ± 0.18 µM	concentration-dependent decrease	concentration-dependent decrease	concentration-dependent decrease	concentration-dependent decrease	increased	increased	3.51 ± 0.05 µM	significant reduction	decrease in MMP9 protein expression	significantly inhibit	almost completely inhibited	53.26 ± 4.51%	migration closure rate ([9]; H1299, 4 μM): 40.04 ± 8.02%; migration closure rate ([9]; H1299, 8 μM): 17.90 ± 3.46%; IC50 [10]: 4 ± 0.08 µM; melting point: 202 to 203 °C; nuclear morphology (DAPI staining) [11]: typical apoptotic features; total apoptotic cell proportion ([12]; H1299, 2 μM): 16.37 ± 0.57%; total apoptotic cell proportion ([12]; H1299, 4 μM): 31.2 ± 2.36%; total apoptotic cell proportion ([12]; H1299, 8 μM): 51.77 ± 6.74%
